{"source": "patent US20110293524A1", "about": "“METHODS AND COMPOSITIONS FOR THE REGULATION OF LECTIN COMPLEMENT PATHWAY (LCP)-ASSOCIATED COMPLEMENT ACTIVATION IN HYPERGLYCEMIC MYOCARDIAL DAMAGE” (The Brigham and Women\"s Hosptial Inc., priority 2008, published 2011)", "assay_type_in_all_cases": "in vivo", "key": {"diabetic WT mice [1]": {"system": "diabetic WT mice", "assay": "Neutrophil infiltration into the myocardium following MI/R (Ly-6G staining, infrared imaging)", "details": "diabetic WT mice treated with insulin; 15 min ischemia, 4 h reperfusion", "protocol": "(§1) All animals used in MI/R experiments were male mice aged 8-12 wk old. C57BL/6 [wildtype (WT)] mice were obtained from Charles River Laboratories (Wilmington, Mass.). MBL null animals 21, back-crossed 8-10 generations onto the C57BL/6 background, were used as previously described^2,22. All procedures were reviewed and conducted in accordance with the Institute's Animal Care and Use Committee (IACUC). Experiments were performed according to the standards and principles set forth in the National Institutes of Health (Guide for the Care and Use of Laboratory Animals-DHHS publication no. (NIH) 85-23, revised 1985). Mice were made diabetic by a single injection of freshly prepared streptozotocin (STZ) solution (200 mg/kg body weight in citrate saline, pH 4.2, i.p., ALEXIS, Lausen, Switzerland)^23. The mice were housed in cages of four mice each and had unlimited access to water and standard mouse chow. Three days after STZ injection and immediately before MI/R studies, the urine glucose was assessed with Glucostix (Diastix, Bayer, Elkhart, Ind.). Mice with urine glucose>500 mg/dl in both tests were presumed to be diabetic. A group of STZ-injected mice was intensively treated with Lantus insulin (Sanofi-Aventis, Bridgewater, N.J.) to rule out any potentially cardiotoxic effects of STZ. Dependent on the individual daily urine glucose, 2-6 IU of insulin was injected (i.p.) daily. […]"}, "diabetic WT mice [2]": {"system": "diabetic WT mice", "assay": "Heart/body weight ratio after 2 weeks of diabetes", "details": "STZ-diabetic WT mice, insulin-treated, no MI/R", "protocol": "as §1, with “diabetic.” for “diabetic. A group of STZ-injected mice was intensively treated with Lantus insulin (Sanofi-Aventis, Bridgewater, N.J.) to rule out any potentially cardiotoxic effects of STZ. Dependent on the individual daily urine glucose, 2-6 IU of insulin was injected (i.p.) daily.”\n(§2) Hearts were excised and fixed in 10% formalin PBS at 4° C. overnight. […] Serum troponin I concentrations were measured as an index of myocardial cell death using a commercially available ELISA kit (Life Diagnostics, West Chester, Pa.)^26."}, "diabetic WT mice [3]": {"system": "diabetic WT mice", "assay": "Cardiac progenitor cell (CPC) numbers in heart sections (SCF R/c-kit staining)", "details": "diabetic WT mice treated with insulin, two weeks of diabetes", "protocol": "as §1"}, "diabetic WT mice [4]": {"system": "diabetic WT mice", "assay": "Left ventricular long and short axis area measurements by echocardiography before MI/R", "details": "STZ-diabetic WT mice, insulin 2-6 IU i.p. daily for 2 weeks", "protocol": "(§3) All animals used in MI/R experiments were male mice aged 8-12 wk old. C57BL/6 [wildtype (WT)] mice were obtained from Charles River Laboratories (Wilmington, Mass.). MBL null animals 21, back-crossed 8-10 generations onto the C57BL/6 background, were used as previously described^2,22. All procedures were reviewed and conducted in accordance with the Institute's Animal Care and Use Committee (IACUC). Experiments were performed according to the standards and principles set forth in the National Institutes of Health (Guide for the Care and Use of Laboratory Animals-DHHS publication no. (NIH) 85-23, revised 1985). […] Three days after STZ injection and immediately before MI/R studies, the urine glucose was assessed with Glucostix (Diastix, Bayer, Elkhart, Ind.). […]\n(§4) Echocardiography was performed after mice had underwent experimental MI/R as described above. It has been shown that in the mouse model of MI/R, myocardial damage via infarct analysis is directly correlated with loss of function as measured by echocardiography^2. […] Ejection fraction (EF) was calculated both via left ventricular M-mode measurements and via long axis length and short axis area measurements of the left ventricle (LV)^24,25. […] In some animals, long axis and short axis area measurements of the LV were assessed prior to MI/R to assess myocardial dimensions under nonischemic conditions."}, "diabetic WT mice [5]": {"system": "diabetic WT mice", "assay": "Serum troponin I concentration after MI/R (ELISA)", "details": "insulin-treated diabetic animals vs non-treated diabetic WT mice; 15 min ischemia, 4 h reperfusion", "protocol": "as §1, with “diabetic.” for “diabetic. A group of STZ-injected mice was intensively treated with Lantus insulin (Sanofi-Aventis, Bridgewater, N.J.) to rule out any potentially cardiotoxic effects of STZ. Dependent on the individual daily urine glucose, 2-6 IU of insulin was injected (i.p.) daily.”\nas §2"}, "diabetic WT mice [6]": {"system": "diabetic WT mice", "assay": "Left ventricular ejection fraction by echocardiography after MI/R (15 min ischemia, 4 h reperfusion)", "details": "STZ-diabetic WT mice, insulin 2-6 IU i.p. daily for 2 weeks, vs non-treated diabetic WT mice", "protocol": "as §3, §4"}}}
{"substance": "insulin", "values": [{"measurement": "inflammatory response (neutrophil infiltration into cardiac tissue) after MI/R", "setting": "diabetic WT mice [1]", "result": "attenuated the inflammatory response"}, {"measurement": "diabetic cardiomyopathy / hypertrophic remodeling by heart/body weight ratios", "setting": "diabetic WT mice [2]", "result": "protected diabetic WT mice from diabetic cardiomyopathy"}, {"measurement": "loss of cardiac progenitor cells (CPC) in diabetes", "setting": "diabetic WT mice [3]", "result": "reversed this effect"}, {"measurement": "diabetic cardiomyopathy as measured by long and short axis measurements via echocardiography", "setting": "diabetic WT mice [4]", "result": "protected diabetic WT mice from diabetic cardiomyopathy"}, {"measurement": "serum troponin I concentrations after MI/R", "setting": "diabetic WT mice [5]", "result": "significantly reduced"}, {"measurement": "cardiac function (ejection fraction) following MI/R", "setting": "diabetic WT mice [6]", "result": "prevented loss of cardiac function following MI/R"}]}
